Test results reported in paper PMC3978507, “Fusion of a Short HA2-Derived Peptide Sequence to Cell-Penetrating Peptides Improves Cytosolic Uptake, but Enhances Cytotoxic Activity” (Pharmaceuticals, 2009).
Positions of bridges follow the written chain, without caps; N, C: chain ends. Residues, ends and D or L forms follow the SMILES beside them. Chains are numbered I, II in the order given.

Columns and labels:
HeLa cells [1] = experiment: Flow cytometric studies of peptide uptake; format: cell-based, human; settings: for uptake of chimeric peptide versus parent CPP: CF-labelled, 10 min, several peptide concentrations, flow cytometry
Protocol: Finally, cells were diluted with cold HBSS and inspected.

[2] = tested on: several cell lines (MCF-7, HT-29, HEK293, K562, Jurkat); settings: for cytotoxicity, several cell lines: several cell lines (MCF-7, HT-29, HEK293, K562, Jurkat), concentrations of up to 100 µM
Protocol: The effect of the peptides on the viability of HT-29 and MCF-7 cells was checked by using the MTT-assay. Therefore, cells were cultivated to subconfluency under standard conditions in 96-well plates. The treatment was performed with 1-100 µM of the peptides for 24 h. Then, 10-fold stock solution of MTT reagent (5 mg/mL in medium) was added to each sample, and the cells were incubated for further 2 h. Formazan crystals were solubilised with 200 µL DMSO per well. After incubation for 15 min at 400 rpm and RT, absorbance was measured with a Tecan Saphire plate reader (560 nm, reference filter 630 nm).
The viability after peptide treatment (1-50 µM peptide solutions) for 24 h of the suspension cell lines Jurkat and K562 was tested by using flow cytometry. For this purpose, 2.5 × 10^5 cells per sample were stained with fluorescein diacetate (FDA) (0.04 µg/100 µL cell suspension) and propidium iodide (PI) (25 µg/100 µL cell suspension) in FACS buffer (1% BSA in PBS). Samples were incubated for 15 min at RT in the dark, washed and resuspended in FACS buffer.
Viability of the stained cells was analysed using a FACS®Calibur and CellQuest Pro analysis software (both Becton Dickinson, Franklin Lakes, USA) and is represented as relative cell number of viable cells. Untreated cells were used as negative control. Excitation and emission settings were 488 nm and 525–550 nm for FDA and 488 nm and 564–606 nm for PI staining.

K562 erythrocytes = settings: cited from earlier work
From the text: (§1) Therefore, we further elucidated the cytotoxicity profiles of the chimeric peptides for several cell lines (including MCF-7, HeLa and HT-29 cells, as well as suspension cell lines K562 and Jurkat).

[3] = tested on: MDA-MB-231 breast cancer cells; settings: cited from earlier work
From the text: as §1

HT-29 cells = experiment: MTT cell viability assay; format: cell-based, human; settings: 24 h, 1-100 µM peptide
Protocol: (§2) We used the following cell lines: HEK 293 (human embryonal kidney), HeLa (human cervix carcinoma), MCF-7 (human breast adenocarcinoma), HT-29 (human colon adenocarcinoma), K-562 (human chronic myeloid leukemia) and Jurkat (human T cell leukemia). All cells were cultured in 75 cm^2 culture flasks at 37 °C and 5% CO2 in a humidified atmosphere and split when confluent. For HEK 293 cells Dulbecco’s Modified Eagle Medium/ Ham’s F12 (without L-glutamine) containing 15% heat-inactivated foetal calf serum was used. HeLa and Jurkat cells were grown in supplemented RPMI 1640 (with L-glutamine) with 10% heat-inactivated foetal calf serum, MCF-7 cells in Dulbecco’s Modified Eagle Medium/ Ham’s F12 (without L-glutamine) containing 10% heat-inactivated foetal calf serum and 1% glutamine, and HT-29 and K-562 cells in Dulbecco’s Modified Eagle Medium supplemented with 10% heat-inactivated foetal calf serum. Detachment and dissociation of confluent cells was done by Trp/EDTA (0.05%/0.02% in PBS). For microscopic studies cells were seeded in glass-bottomed 8-well plates, whereas cells for cell viability and flow cytometric studies were cultured in 96-well plates.

MCF-7 cells = experiment: MTT cell viability assay; format: cell-based, human; settings: 24 h, 1-100 µM peptide
Protocol: as §2

K562 cells = experiment: Flow cytometric analysis of cell viability (FDA/PI staining); format: cell-based, human; settings: flow cytometry FDA/PI, 24 h, 1-50 µM peptide
Protocol: as §2
(§3) Untreated cells were used as negative control.

Jurkat cells = experiment: as above; format: cell-based, human; settings: flow cytometry FDA/PI, 24 h, 1-50 µM peptide
Protocol: as §2, §3

HeLa cells [4] = experiment: Resazurin-based cell viability assay; design: species or system human; settings: 24 h incubation, up to 100 µM peptide
Protocol: as §2

Compound	cellular translocation of the peptide alone (HeLa cells [1]; CF-labelled analogue, 60 min, several concentrations, fluorescence microscopy and flow cytometry)	cytotoxicity, several cell lines [2]	haemolytic effect (K562 erythrocytes)	membrane toxicity [3]	cytotoxic effects, all tested cell lines ([2]; all tested cell lines, data not shown)	uptake of chimeric peptide versus parent CPP (HeLa cells [1])	IC50 (HT-29 cells) [µM]	IC50 (MCF-7 cells) [µM]	IC50 (K562 cells) [µM]	IC50 (Jurkat cells) [µM]	IC50 (HeLa cells [4]) [µM]
GLLEALAELLE [N-E5L]	unable to translocate in cells	no cytotoxicity was observed	–	–	–	–	–	–	–	–	–
GRKKRRQRRRPPQ [Tat(48-60)]	–	–	no haemolytic effect	no membrane toxicity	no cytotoxic effects	–	–	–	–	–	–
CC[C@H](C)[C@H](NC(=O)[C@H](C)NC(=O)[C@@H](NC(=O)[C@H](CCC(N)=O)NC(=O)[C@@H]1CCCN1C(=O)[C@H](Cc1ccccc1)NC(=O)[C@@H](NC(=O)[C@H](Cc1c[nH]cn1)NC(=O)[C@H](Cc1ccccc1)NC(=O)[C@H](CCCCNC(=O)[C@H](C)NC(=O)[C@H](Cc1ccccc1)NC(=O)[C@H](CCCCN)NC(=O)[C@H](CCCNC(=N)N)NC(=O)[C@H](CCCCN)NC(=O)[C@H](CCCCN)NC(=O)[C@H](CCCCN)NC(=O)[C@@H]1CCCN1C(=O)[C@H](C)NC(=O)[C@H](CCCCN)NC(=O)[C@H](CCCNC(=N)N)NC(=O)[C@H](CCCCN)NC(=O)[C@@H](N)CCCCN)NC(=O)[C@H](CCC(=O)O)NC(=O)[C@H](CC(C)C)NC(=O)[C@H](CC(C)C)NC(=O)[C@H](CCC(=O)O)NC(=O)[C@H](C)NC(=O)[C@H](CC(C)C)NC(=O)[C@H](C)NC(=O)[C@H](CCC(=O)O)NC(=O)[C@H](CC(C)C)NC(=O)[C@H](CC(C)C)NC(=O)CN)[C@@H](C)O)[C@@H](C)O)C(=O)NCC(=O)N[C@H](C(=O)NCC(=O)N[C@@H](C)C(=O)N1CCC[C@H]1C(N)=O)C(C)C [N-E5L-hCT(18-32)-k7] (I: H-GLLEALAELLEKFHTFPQTAIGVGAP-NH2 / II: H-KKRKAPKKKRKFA; amide I:12-II:C; N-terminus assumed)	–	–	–	–	–	higher uptake values	59.1 ± 0.1	37.8 ± 6.5	> 30	11.4 ± 4.2	33.1 ± 3.3
CC(C)C[C@H](NC(=O)CN)C(=O)N[C@@H](CC(C)C)C(=O)N[C@@H](CCC(=O)O)C(=O)N[C@@H](C)C(=O)N[C@@H](CC(C)C)C(=O)N[C@@H](C)C(=O)N[C@@H](CCC(=O)O)C(=O)N[C@@H](CC(C)C)C(=O)N[C@@H](CC(C)C)C(=O)N[C@@H](CCC(=O)O)C(=O)NCC(=O)N[C@@H](CCCNC(=N)N)C(=O)N[C@@H](CCCCN)C(=O)N[C@@H](CCCCN)C(=O)N[C@@H](CCCNC(=N)N)C(=O)N[C@@H](CCCNC(=N)N)C(=O)N[C@@H](CCC(N)=O)C(=O)N[C@@H](CCCNC(=N)N)C(=O)N[C@@H](CCCNC(=N)N)C(=O)N[C@@H](CCCNC(=N)N)C(=O)N1CCC[C@H]1C(=O)N1CCC[C@H]1C(=O)N[C@@H](CCC(N)=O)C(N)=O [N-E5L-Tat(48-60)] (H-GLLEALAELLEGRKKRRQRRRPPQ-NH2)	–	–	–	–	–	higher uptake values	90.9 ± 0.2	39.3 ± 9.4	> 30	7.9 ± 0.8	29.4 ± 3.9
CC[C@H](C)[C@H](NC(=O)[C@H](CCCCN)NC(=O)[C@H](CC(N)=O)NC(=O)[C@H](CCCNC(=N)N)NC(=O)[C@H](Cc1ccccc1)NC(=O)[C@H](CCCCN)NC(=O)[C@H](CCCNC(=N)N)NC(=O)[C@H](CC(C)C)NC(=O)[C@H](CCCNC(=N)N)NC(=O)[C@H](CCCCN)NC(=O)[C@H](CCCNC(=N)N)NC(=O)[C@H](CC(C)C)NC(=O)CNC(=O)[C@H](CCC(=O)O)NC(=O)[C@H](CC(C)C)NC(=O)[C@H](CC(C)C)NC(=O)[C@H](CCC(=O)O)NC(=O)[C@H](C)NC(=O)[C@H](CC(C)C)NC(=O)[C@H](C)NC(=O)[C@H](CCC(=O)O)NC(=O)[C@H](CC(C)C)NC(=O)[C@H](CC(C)C)NC(=O)CN)C(=O)N[C@@H](CCCCN)C(=O)N[C@@H](CCC(=O)O)C(=O)N[C@@H](CCCCN)C(N)=O [N-E5L-sC18] (H-GLLEALAELLEGLRKRLRKFRNKIKEK-NH2)	–	–	–	–	–	higher uptake values	72.1 ± 0.1	30.8 ± 4.1	> 30	7.3 ± 1.7	31.8 ± 1.9
GLRKRLRKFRNKIKEK [sC18]	–	no cytotoxicity was observed	–	–	–	–	–	–	–	–	–
